Measurements as given in paper PMC7475180, “The Arabidopsis TRM61/TRM6 complex is a bona fide tRNA N^1-methyladenosine methyltransferase” (Journal of Experimental Botany, 2020).

Biological target: T1, AtTRM61/AtTRM6 complex (AtTRM61-His/AtTRM6-GST) (Arabidopsis thaliana, UniProt F4K6U9)
T1 construct: gene TRM61; CDSs of AtTRM61 (pET28a+, His tag) and AtTRM6 (pGEX-4T-2, GST tag) co-expressed in E. coli, Ni-NTA purified; tag removal not mentioned; heterodimeric complex; with tRNA (adenine(58)-N(1))-methyltransferase non-catalytic subunit TRM6
T1 sequence (F4K6U9 1-318): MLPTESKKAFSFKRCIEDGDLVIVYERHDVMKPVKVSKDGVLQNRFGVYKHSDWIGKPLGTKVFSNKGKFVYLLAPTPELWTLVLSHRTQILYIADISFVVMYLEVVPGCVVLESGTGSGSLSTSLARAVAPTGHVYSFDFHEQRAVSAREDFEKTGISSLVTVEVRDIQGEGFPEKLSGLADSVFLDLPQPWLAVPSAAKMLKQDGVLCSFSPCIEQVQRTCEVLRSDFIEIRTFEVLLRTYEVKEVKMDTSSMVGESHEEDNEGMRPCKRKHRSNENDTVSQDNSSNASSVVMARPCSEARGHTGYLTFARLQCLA
T1 sequence (O80846 1-446 partner): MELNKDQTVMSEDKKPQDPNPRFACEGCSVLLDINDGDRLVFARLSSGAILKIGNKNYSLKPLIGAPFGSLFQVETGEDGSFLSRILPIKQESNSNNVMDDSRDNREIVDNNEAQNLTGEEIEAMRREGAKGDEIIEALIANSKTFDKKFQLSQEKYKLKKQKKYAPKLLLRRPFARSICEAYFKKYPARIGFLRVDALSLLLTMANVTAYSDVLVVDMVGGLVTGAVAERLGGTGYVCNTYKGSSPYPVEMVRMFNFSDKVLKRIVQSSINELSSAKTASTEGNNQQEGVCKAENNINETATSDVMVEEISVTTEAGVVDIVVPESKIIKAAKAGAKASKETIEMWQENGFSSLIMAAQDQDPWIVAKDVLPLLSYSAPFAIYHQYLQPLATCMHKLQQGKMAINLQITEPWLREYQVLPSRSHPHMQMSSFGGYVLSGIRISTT
Experiment: m1A formation on tRNA, anti-m1A immuno-northern blot
Format: biochemical
Details: methyl donor, 30 mM AdoMet as printed; 150 nM RNA substrate (trm6-506 yeast tRNA or in vitro transcribed Arabidopsis tRNAiMet); 15 nM protein; 30 °C, 30 min

## C[S+](CC[C@H](N)C(=O)O)C[C@H]1O[C@@H](n2cnc3c(N)ncnc32)[C@H](O)[C@@H]1O (stereo partly drawn) [S-adenosyl-L-methionine]
  m1A formation on tRNA, anti-m1A immuno-northern blot: The purified complex was then incubated with a methyl donor (SAM)
